{"source": "patent US8642631B2", "about": "“Methods of treating mammals with eustachian tube dysfunctions” (University of Melbourne, priority 2008, dated 2014)", "system": "Eustachian tube", "assay": "Eustachian tube function test (middle ear pressure equalisation on reflex swallowing) in anaesthetised rats", "format": "in vivo, Sprague Dawley rats", "description": "Animal experiments were conducted on female and male adult Sprague Dawley rats weighing 250-450 g. Up to five animals were used in each section of the experiment. In this figure, a small tube is glued into the tympanic bulla of an anaesthetised rat (A). The tube is connected to a syringe pump (B), a pressure transducer (C) and data recorder (D) and to a manometer (E). The syringe pump is used to increase pressure within the middle ear. […] From this it can be seen that intra-bulla pressure was increased from ambient (Amb) to around 130 mm of water. […] The overall pressure drop is a measure of the efficiency of pressure equalisation via the Eustachian tube. Each experiment consisted of a series of active Eustachian tube function tests preceded by a passive run. In the passive run pressure was increased in the bulla by a continuous air flow (30 ml/min) until the Eustachian tube opened spontaneously. While the air continued to flow, the pressure in the middle ear decreased until the Eustachian tube closed. Now the pressure in the middle ear, due to continued air flow, could build up again until the Eustachian tube opened a second time. This enabled the measurement of the passive opening and closing pressures of the Eustachian tube. The active runs consisted of three preceding control runs (C1-C3) followed by three runs assessing the effect of intervention S1-S6. At the start of each active run the pressure in the bulla was raised to 75% of the passive opening pressure of the Eustachian tube. At this point the air flow into the bulla was stopped. […] This caused reflex swallowing, which was accompanied by a momentary opening of the Eustachian tube, and reduced middle ear pressure step by step. In each active run 10 consecutive swallows were recorded. […]"}
{"smiles": "CNCCc1ccccn1", "note": "[betahistine, N-methyl-2-pyridineethanaamine]", "values": [{"measurement": "increase in efficiency of Eustachian tube pressure equalisation", "setting": "anaesthetised rats, betahistine applied within the tympanic bulla and flushed through the Eustachian tube, FIG. 4", "value": "around 30%"}, {"measurement": "effect on ET function", "setting": "anaesthetised rats, systemic (intraperitoneal) injection, cumulative doses 1, 5 and 10 μl, total 16 μl, FIG. 5", "value": "no significant effect"}, {"measurement": "increase in efficiency of pressure equalisation through the Eustachian tube", "setting": "healthy anaesthetised rats, betahistine diHCl 5 μl of 8 mg/mL (Vasomotal) applied to the nasopharynx, normalized to control measurement C3, FIG. 3", "value": 31, "unit": "%"}]}
